target: T1, human Werner helicase (WRN-BV08, Uniprot Q14191, amino acids 517-1235 with L1074F point mutation) (Homo sapiens, UniProt Q14191, L1074F); assay: WRN (BV08) ADP-Glo Assay; format: biochemical; conditions: 0.15 nM WRN, 5 μM ATP, 0.1 nM DNA duplex, 15 min preincubation, 60 min at 25° C., pH 7.5, 1% DMSO; read-out: ADP-Glo_hWRN_IC50
T1 construct: Uniprot Q14191, amino acids 517-1235 with L1074F point mutation; TEV-cleavable 8×His (C, cleaved yes); made in house; host or cells: Sf9 insect cells (baculovirus)
Outline: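 Helicase ATPase activity is measured at 25 °C over 60 min using 0.15 nM enzyme, 5 μM ATP and 0.1 nM DNA duplex, final DMSO 1%. ADP production is detected by luminescence, with IC50 derived by curve fitting.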

T1 sequence (Q14191 with tags, fused parts or gaps L1074F limits assumed): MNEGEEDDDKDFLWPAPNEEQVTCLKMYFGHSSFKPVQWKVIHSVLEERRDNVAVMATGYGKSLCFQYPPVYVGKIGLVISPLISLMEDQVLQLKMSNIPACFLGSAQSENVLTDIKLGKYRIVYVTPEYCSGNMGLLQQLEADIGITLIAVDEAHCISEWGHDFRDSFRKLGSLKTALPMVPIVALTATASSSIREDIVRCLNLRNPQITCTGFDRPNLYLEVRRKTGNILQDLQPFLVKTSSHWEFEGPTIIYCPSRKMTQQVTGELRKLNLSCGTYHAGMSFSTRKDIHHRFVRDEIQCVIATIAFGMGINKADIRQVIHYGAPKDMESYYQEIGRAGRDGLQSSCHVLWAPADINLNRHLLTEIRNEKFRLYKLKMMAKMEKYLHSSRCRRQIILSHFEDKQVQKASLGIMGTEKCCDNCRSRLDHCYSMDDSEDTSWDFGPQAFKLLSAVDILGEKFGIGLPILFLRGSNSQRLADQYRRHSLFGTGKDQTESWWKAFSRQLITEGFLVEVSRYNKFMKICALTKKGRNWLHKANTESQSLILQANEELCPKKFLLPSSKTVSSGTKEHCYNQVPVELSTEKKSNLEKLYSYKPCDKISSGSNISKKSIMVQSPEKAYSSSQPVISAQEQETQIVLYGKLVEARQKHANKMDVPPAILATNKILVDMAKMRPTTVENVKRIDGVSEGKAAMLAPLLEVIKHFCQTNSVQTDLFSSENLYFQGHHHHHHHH

| SMILES | IC50 [µM] |
| --- | --- |
| O=C(Cc1ccc(-n2cccc2)cc1)N(Cc1cnc2ccccc2c1)C1C=CS(=O)(=O)C1 (stereo not drawn) [I-296, N-(1,1-dioxo-2,3-dihydro-1lambda6-thiophen-3-yl)-2-[4-(1H-pyrrol-1-yl)phenyl]-N-[(quinolin-3-yl)methyl]acetamide] | 10 to 50 |
| O=C(Cc1ccc(C(F)(F)F)c(Cl)c1)N(Cc1ccncc1)C1C=CS(=O)(=O)C1 (stereo not drawn) [I-299, 2-[3-chloro-4-(trifluoromethyl)phenyl]-N-(1,1-dioxo-2,3-dihydro-1lambda6-thiophen-3-yl)-N-[(pyridin-4-yl)methyl]acetamide] | 10 to 50 |
| CC(=O)Nc1ccc(CN(C(=O)Cc2ccc(-n3cccc3)cc2)C2C=CS(=O)(=O)C2)cc1 (stereo not drawn) [I-302, N-(1,1-dioxo-2,3-dihydro-1lambda6-thiophen-3-yl)-N-[(4-acetamidophenyl)methyl]-2-[4-(1H-pyrrol-1-yl)phenyl]acetamide] | 10 to 50 |
| O=C(Cc1ccc(-n2cccc2)cc1)N(Cc1ccc(O)cc1)C1C=CS(=O)(=O)C1 (stereo not drawn) [I-303, N-(1,1-dioxo-2,3-dihydro-1lambda6-thiophen-3-yl)-N-[(4-hydroxyphenyl)methyl]-2-[4-(1H-pyrrol-1-yl)phenyl]acetamide] | 10 to 50 |
| O=C(Cc1ccc(-n2ccc3ccccc32)cc1)N(Cc1ccncc1)C1C=CS(=O)(=O)C1 (stereo not drawn) [I-305, N-(1,1-dioxo-2,3-dihydro-1lambda6-thiophen-3-yl)-2-[4-(1H-indol-1-yl)phenyl]-N-[(pyridin-4-yl)methyl]acetamide] | 10 to 50 |
| O=C(CCc1c[nH]c2cc(Cl)ccc12)N(Cc1ccncc1)C1C=CS(=O)(=O)C1 (stereo not drawn) [I-306, 3-(6-chloro-1H-indol-3-yl)-N-(1,1-dioxo-2,3-dihydro-1lambda6-thiophen-3-yl)-N-[(pyridin-4-yl)methyl]propanamide] | 10 to 50 |
| CCc1ccc(CC(=O)N(Cc2ccncc2)C2C=CS(=O)(=O)C2)cc1 (stereo not drawn) [I-308, N-(1,1-dioxo-2,3-dihydro-1lambda6-thiophen-3-yl)-2-(4-ethylphenyl)-N-[(pyridin-4-yl)methyl]acetamide] | 10 to 50 |
| O=C(Cc1ccc2ccccc2c1)N(Cc1ccncc1)C1C=CS(=O)(=O)C1 (stereo not drawn) [I-315, N-(1,1-dioxo-2,3-dihydro-1lambda6-thiophen-3-yl)-2-(naphthalen-2-yl)-N-[(pyridin-4-yl)methyl]acetamide] | 10 to 50 |
| O=C(Cc1ccc(-n2cccc2)cc1)N(Cc1cccc2nccnc12)C1C=CS(=O)(=O)C1 (stereo not drawn) [I-316, N-(1,1-dioxo-2,3-dihydro-1lambda6-thiophen-3-yl)-2-[4-(1H-pyrrol-1-yl)phenyl]-N-[(quinoxalin-5-yl)methyl]acetamide] | 10 to 50 |
| O=C(Cc1ccc(C(F)F)cc1)N(Cc1ccncc1)C1C=CS(=O)(=O)C1 (stereo not drawn) [I-317, 2-[4-(difluoromethyl)phenyl]-N-(1,1-dioxo-2,3-dihydro-1lambda6-thiophen-3-yl)-N-[(pyridin-4-yl)methyl]acetamide] | 10 to 50 |
| NC(=O)c1cccc(CN(C(=O)Cc2ccc(-n3cccc3)cc2)C2C=CS(=O)(=O)C2)c1 (stereo not drawn) [I-318, 3-{[N-(1,1-dioxo-2,3-dihydro-1lambda6-thiophen-3-yl)-2-[4-(1H-pyrrol-1-yl)phenyl]acetamido]methyl}benzamide] | 10 to 50 |
| O=C(Cc1ccc(-n2cccc2)cn1)N(Cc1ccncc1)C1C=CS(=O)(=O)C1 (stereo not drawn) [I-319, N-(1,1-dioxo-2,3-dihydro-1lambda6-thiophen-3-yl)-N-[(pyridin-4-yl)methyl]-2-[5-(1H-pyrrol-1-yl)pyridin-2-yl]acetamide] | 10 to 50 |
| Cc1scnc1-c1ccc(CC(=O)N(Cc2ccncc2)C2C=CS(=O)(=O)C2)c(F)c1 (stereo not drawn) [I-320, N-(1,1-dioxo-2,3-dihydro-1lambda6-thiophen-3-yl)-2-[2-fluoro-4-(5-methyl-1,3-thiazol-4-yl)phenyl]-N-[(pyridin-4-yl)methyl]acetamide] | 10 to 50 |

Results, then the compound that gave them:

| IC50 [µM] | SMILES |
| --- | --- |
| 0.5 to 5 | O=C(Cc1ccc(-n2cccc2)cc1)N(Cc1ccnc(-c2ccccc2)c1)C1C=CS(=O)(=O)C1 (stereo not drawn) [I-297, N-(1,1-dioxo-2,3-dihydro-1lambda6-thiophen-3-yl)-N-[(2-phenylpyridin-4-yl)methyl]-2-[4-(1H-pyrrol-1-yl)phenyl]acetamide] |
| 10 to 50 | CC(C)(O)c1cc(CN(C(=O)C2Cc3cc(-c4ccc(F)cc4)ccc3O2)C2C=CS(=O)(=O)C2)ccn1 (stereo not drawn) [I-298, N-(1,1-dioxo-2,3-dihydro-1lambda6-thiophen-3-yl)-5-(4-fluorophenyl)-N-{[2-(2-hydroxypropan-2-yl)pyridin-4-yl]methyl}-2,3-dihydro-1-benzofuran-2-carboxamide] |
| 10 to 50 | O=C(Cc1ncc(-c2ccccc2)s1)N(Cc1ccncc1)C1C=CS(=O)(=O)C1 (stereo not drawn) [I-300, N-(1,1-dioxo-2,3-dihydro-1lambda6-thiophen-3-yl)-2-(5-phenyl-1,3-thiazol-2-yl)-N-[(pyridin-4-yl)methyl]acetamide] |
| 10 to 50 | O=C(Cc1cc2ccccc2s1)N(Cc1ccncc1)C1C=CS(=O)(=O)C1 (stereo not drawn) [I-301, 2-(1-benzothiophen-2-yl)-N-(1,1-dioxo-2,3-dihydro-1lambda6-thiophen-3-yl)-N-[(pyridin-4-yl)methyl]acetamide] |
| 10 to 50 | O=C(CCc1c[nH]c2cc(Br)ccc12)N(Cc1ccncc1)C1C=CS(=O)(=O)C1 (stereo not drawn) [I-304, 3-(6-bromo-1H-indol-3-yl)-N-(1,1-dioxo-2,3-dihydro-1lambda6-thiophen-3-yl)-N-[(pyridin-4-yl)methyl]propanamide] |
| 10 to 50 | CN(C)C(C(=O)N(Cc1ccnc(C(C)(C)O)c1)C1C=CS(=O)(=O)C1)c1ccc(-c2ccc(F)c(F)c2)cc1F (stereo not drawn) [I-307, 2-(dimethylamino)-N-(1,1-dioxo-2,3-dihydro-1lambda6-thiophen-3-yl)-N-{[2-(2-hydroxypropan-2-yl)pyridin-4-yl]methyl}-2-{3,3′,4′-trifluoro-[1,1′-biphenyl]-4-yl}acetamide] |
| 10 to 50 | CC(C)(C)c1ccc(CC(=O)N(Cc2ccncc2)C2C=CS(=O)(=O)C2)cc1 (stereo not drawn) [I-310, 2-(4-tert-butylphenyl)-N-(1,1-dioxo-2,3-dihydro-1lambda6-thiophen-3-yl)-N-[(pyridin-4-yl)methyl]acetamide] |
| > 50 | COc1cc(CN(C(=O)Cc2ccc(S(F)(F)(F)(F)F)cc2)[C@H]2C=CS(=O)(=O)C2)ccn1 [I-311, N-[(3S)-1,1-dioxo-2,3-dihydro-1lambda6-thiophen-3-yl]-N-[(2-methoxypyridin-4-yl)methyl]-2-[4-(pentafluoro-lambda6-sulfanyl)phenyl]acetamide] |
| 10 to 50 | Cc1cnccc1CN(C(=O)Cc1ccc(-n2cccc2)cc1)C1C=CS(=O)(=O)C1 (stereo not drawn) [I-313, N-(1,1-dioxo-2,3-dihydro-1lambda6-thiophen-3-yl)-N-[(3-methylpyridin-4-yl)methyl]-2-[4-(1H-pyrrol-1-yl)phenyl]acetamide] |
| 10 to 50 | O=C(Cc1ccc(-n2cccc2)cc1)N(Cc1cccc(B(O)O)c1)C1C=CS(=O)(=O)C1 (stereo not drawn) [I-314, (3-{[N-(1,1-dioxo-2,3-dihydro-1lambda6-thiophen-3-yl)-2-[4-(1H-pyrrol-1-yl)phenyl]acetamido]methyl}phenyl)boronic acid] |
| 10 to 50 | O=C(Cc1ccc(-n2cccc2)cc1)N(Cc1ccc(B(O)O)cc1)C1C=CS(=O)(=O)C1 (stereo not drawn) [I-321, (4-((2-(4-(1H-pyrrol-1-yl)phenyl)-N-(1,1-dioxido-2,3-dihydrothiophen-3-yl)acetamido)methyl)phenyl)boronic acid] |

From patent US20260297070A1, “CYCLIC [COMPOUND LEFT OUT] WRN INHIBITORS” (Nimbus Wadjet, Inc., priority 2023, published 2026)
